Test results taken from ChEMBL document CHEMBL1201862, “PubChem BioAssay data set” (2004).
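Cultured in 96-well plates, cells were exposed to test compound for 48 hours across five concentrations. GI50 marks 50% less growth.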 Calls of active or inactive are those of the source. No stated cut-off is given here; in the data, active = GI50 up to about 1.1 µM and inactive = higher.

Assays:
Assay in all cases: inhibition of tumour cell growth, NCI panel, 48 h
[1] = test system: SW-620
[2] = test system: MDA-MB-435
[3] = test system: K562
[4] = test system: UACC-257
[5] = test system: SNB-75
[6] = test system: NCI-H460
[7] = test system: OVCAR-4
[8] = test system: NCI/ADR-RES
[9] = test system: SNB-19
[10] = test system: SK-MEL-2
[11] = test system: 786-0
[12] = test system: U-251
[13] = test system: Malme-3M
[14] = test system: UO-31
[15] = test system: HL-60
[16] = test system: HCT-116
[17] = test system: MDA-N
[18] = test system: Hs-578T
[19] = test system: T47D
[20] = test system: EKVX
[21] = test system: UACC-62
[22] = test system: SK-MEL-28
[23] = test system: SK-MEL-5
[24] = test system: HOP-62
[25] = test system: SK-OV-3
[26] = test system: MDA-MB-231
[27] = test system: OVCAR-8
[28] = test system: SR
[29] = test system: MOLT-4
[30] = test system: RPMI-8226
[31] = test system: RXF 393
[32] = test system: CCRF-CEM
[33] = test system: OVCAR-3
[34] = test system: HT-29
[35] = test system: SN12C
[36] = test system: IGROV-1
[37] = test system: HOP-92
[38] = test system: ACHN
[39] = test system: CAKI-1
[40] = test system: A549
[41] = test system: KM12
[42] = test system: DU-145
[43] = test system: NCI-H23
[44] = test system: LOX IMVI
[45] = test system: HCT-15
[46] = test system: M14
[47] = test system: HCC 2998
[48] = test system: NCI-H226
[49] = test system: SF-268
[50] = test system: OVCAR-5
[51] = test system: A498
[52] = test system: PC-3
[53] = test system: MCF7
[54] = test system: SF-539
[55] = test system: COLO 205
[56] = test system: TK-10
[57] = test system: SF-295

Question: With `NC(=S)NNC(=S)NC(=O)c1ccco1` as the compound, how does the GI50 [1] read?
Answer: > 10 µM (inactive)

Question: What about the GI50 [2] of the same compound?
Answer: > 10 µM (inactive)

Question: What about the GI50 [3] of the same compound?
Answer: > 10 µM (inactive)

Question: What about the GI50 [4] of the same compound?
Answer: > 10 µM (inactive)

Question: What about the GI50 [5] of the same compound?
Answer: > 10 µM (inactive)

Question: And the GI50 [6]?
Answer: > 10 µM (inactive)

Question: What about the GI50 [7] of the same compound?
Answer: > 10 µM (inactive)

Question: And the GI50 [8]?
Answer: > 10 µM (inactive)

Question: What about the GI50 [9] of the same compound?
Answer: > 10 µM (inactive)

Question: And the GI50 [10]?
Answer: > 10 µM (inactive)

Question: And the GI50 [11]?
Answer: > 10 µM (inactive)

Question: What about the GI50 [12] of the same compound?
Answer: > 10 µM (inactive)

Question: And the GI50 [13]?
Answer: > 10 µM (inactive)

Question: And the GI50 [14]?
Answer: > 10 µM (inactive)

Question: And the GI50 [15]?
Answer: > 10 µM (inactive)

Question: And the GI50 [16]?
Answer: > 10 µM (inactive)

Question: And the GI50 [17]?
Answer: > 10 µM (inactive)

Question: What about the GI50 [18] of the same compound?
Answer: > 10 µM (inactive)

Question: What about the GI50 [19] of the same compound?
Answer: > 10 µM (inactive)

Question: And the GI50 [20]?
Answer: > 10 µM (inactive)

Question: And the GI50 [21]?
Answer: > 10 µM (inactive)

Question: And the GI50 [22]?
Answer: > 10 µM (inactive)

Question: What about the GI50 [23] of the same compound?
Answer: > 10 µM (inactive)

Question: What about the GI50 [24] of the same compound?
Answer: > 10 µM (inactive)

Question: What about the GI50 [25] of the same compound?
Answer: > 10 µM (inactive)

Question: What about the GI50 [26] of the same compound?
Answer: > 10 µM (inactive)

Question: And the GI50 [27]?
Answer: > 10 µM (inactive)

Question: What about the GI50 [28] of the same compound?
Answer: > 10 µM (inactive)

Question: What about the GI50 [29] of the same compound?
Answer: > 10 µM (inactive)

Question: And the GI50 [30]?
Answer: > 10 µM (inactive)

Question: And the GI50 [31]?
Answer: > 10 µM (inactive)

Question: What about the GI50 [32] of the same compound?
Answer: > 10 µM (inactive)

Question: And the GI50 [33]?
Answer: > 10 µM (inactive)

Question: And the GI50 [34]?
Answer: > 10 µM (inactive)

Question: And the GI50 [35]?
Answer: > 10 µM (inactive)

Question: And the GI50 [36]?
Answer: > 10 µM (inactive)

Question: And the GI50 [37]?
Answer: > 10 µM (inactive)

Question: What about the GI50 [38] of the same compound?
Answer: > 10 µM (inactive)

Question: And the GI50 [39]?
Answer: > 10 µM (inactive)

Question: What about the GI50 [40] of the same compound?
Answer: > 10 µM (inactive)

Question: And the GI50 [41]?
Answer: > 10 µM (inactive)

Question: What about the GI50 [42] of the same compound?
Answer: > 10 µM (inactive)

Question: And the GI50 [43]?
Answer: > 10 µM (inactive)

Question: What about the GI50 [44] of the same compound?
Answer: > 10 µM (inactive)

Question: And the GI50 [45]?
Answer: > 10 µM

Question: And the GI50 [46]?
Answer: > 10 µM (inactive)

Question: And the GI50 [47]?
Answer: > 10 µM (inactive)

Question: And the GI50 [48]?
Answer: > 10 µM (inactive)

Question: And the GI50 [49]?
Answer: > 10 µM (inactive)

Question: What about the GI50 [50] of the same compound?
Answer: > 10 µM (inactive)

Question: `CSCC[C@H](NC(=O)[C@H](CC(C)C)NC(=O)[C@@H](Cc1ccccc1)NC(=O)CNC(=O)[C@@H](NC(=O)[C@H](C)NC(=O)[C@H](Cc1c[nH]c2ccccc12)NC(=O)[C@H](CCC(N)=O)NC(=O)[C@H](N)CC(N)=O)C(C)C)C(N)=O` was tested. Which GI50 [51] did it give?
Answer: > 12.5 µM (inactive)

Question: And the GI50 [52]?
Answer: > 12.5 µM (inactive)

Question: What about the GI50 [1] of the same compound?
Answer: > 12.5 µM (inactive)

Question: What about the GI50 [2] of the same compound?
Answer: > 12.5 µM (inactive)

Question: What about the GI50 [3] of the same compound?
Answer: > 12.5 µM (inactive)

Question: What about the GI50 [4] of the same compound?
Answer: > 12.5 µM (inactive)

Question: And the GI50 [5]?
Answer: > 12.5 µM (inactive)

Question: And the GI50 [6]?
Answer: > 12.5 µM (inactive)

Question: What about the GI50 [7] of the same compound?
Answer: > 12.5 µM (inactive)

Question: What about the GI50 [8] of the same compound?
Answer: > 12.5 µM (inactive)

Question: And the GI50 [9]?
Answer: > 12.5 µM (inactive)

Question: And the GI50 [11]?
Answer: > 12.5 µM (inactive)

Question: What about the GI50 [12] of the same compound?
Answer: > 12.5 µM (inactive)

Question: What about the GI50 [13] of the same compound?
Answer: > 12.5 µM (inactive)

Question: And the GI50 [15]?
Answer: > 12.5 µM (inactive)

Question: What about the GI50 [16] of the same compound?
Answer: > 12.5 µM (inactive)

Question: What about the GI50 [17] of the same compound?
Answer: > 12.5 µM (inactive)

Question: And the GI50 [18]?
Answer: > 12.5 µM (inactive)

Question: What about the GI50 [53] of the same compound?
Answer: > 12.5 µM (inactive)

Question: And the GI50 [19]?
Answer: > 12.5 µM (inactive)

Question: And the GI50 [20]?
Answer: > 12.5 µM (inactive)

Question: What about the GI50 [54] of the same compound?
Answer: > 12.5 µM (inactive)

Question: And the GI50 [21]?
Answer: > 12.5 µM (inactive)

Question: And the GI50 [22]?
Answer: > 12.5 µM (inactive)

Question: What about the GI50 [23] of the same compound?
Answer: > 12.5 µM (inactive)

Question: And the GI50 [24]?
Answer: > 12.5 µM (inactive)

Question: And the GI50 [25]?
Answer: > 12.5 µM (inactive)

Question: What about the GI50 [26] of the same compound?
Answer: > 12.5 µM (inactive)

Question: And the GI50 [27]?
Answer: > 12.5 µM (inactive)

Question: And the GI50 [28]?
Answer: 0.0269 µM (active)

Question: And the GI50 [29]?
Answer: > 12.5 µM (inactive)

Question: What about the GI50 [30] of the same compound?
Answer: > 12.5 µM (inactive)

Question: What about the GI50 [31] of the same compound?
Answer: > 12.5 µM (inactive)

Question: And the GI50 [32]?
Answer: > 12.5 µM (inactive)

Question: What about the GI50 [33] of the same compound?
Answer: > 12.5 µM (inactive)

Question: What about the GI50 [34] of the same compound?
Answer: > 12.5 µM (inactive)

Question: And the GI50 [35]?
Answer: > 12.5 µM (inactive)

Question: What about the GI50 [55] of the same compound?
Answer: > 12.5 µM (inactive)

Question: And the GI50 [36]?
Answer: > 12.5 µM (inactive)

Question: And the GI50 [37]?
Answer: > 12.5 µM (inactive)

Question: And the GI50 [38]?
Answer: > 12.5 µM (inactive)

Question: And the GI50 [39]?
Answer: > 12.5 µM (inactive)

Question: What about the GI50 [56] of the same compound?
Answer: > 12.5 µM (inactive)

Question: What about the GI50 [40] of the same compound?
Answer: > 12.5 µM (inactive)

Question: And the GI50 [41]?
Answer: > 12.5 µM (inactive)

Question: And the GI50 [42]?
Answer: > 12.5 µM (inactive)

Question: What about the GI50 [43] of the same compound?
Answer: > 12.5 µM (inactive)

Question: What about the GI50 [44] of the same compound?
Answer: > 12.5 µM (inactive)

Question: What about the GI50 [45] of the same compound?
Answer: > 12.5 µM

Question: And the GI50 [46]?
Answer: > 12.5 µM (inactive)

Question: What about the GI50 [47] of the same compound?
Answer: > 12.5 µM (inactive)

Question: What about the GI50 [48] of the same compound?
Answer: > 12.5 µM (inactive)

Question: And the GI50 [49]?
Answer: > 12.5 µM (inactive)

Question: What about the GI50 [50] of the same compound?
Answer: > 12.5 µM (inactive)

Question: What about the GI50 [57] of the same compound?
Answer: > 12.5 µM (inactive)

Question: How did the GI50 [52] turn out when `COc1cccc(/C=C/c2ccc(S(N)(=O)=O)cc2)c1` was run?
Answer: 22.7 µM (inactive)

Question: What about the GI50 [4] of the same compound?
Answer: 16.4 µM (inactive)

Question: What about the GI50 [5] of the same compound?
Answer: 17.4 µM (inactive)

Question: And the GI50 [6]?
Answer: 10.3 µM (inactive)

Question: And the GI50 [8]?
Answer: 23.1 µM (inactive)

Question: And the GI50 [9]?
Answer: 46.6 µM (inactive)

Question: What about the GI50 [10] of the same compound?
Answer: 5.9 µM (inactive)

Question: What about the GI50 [11] of the same compound?
Answer: 17.8 µM (inactive)

Question: What about the GI50 [13] of the same compound?
Answer: 23.2 µM (inactive)

Question: What about the GI50 [14] of the same compound?
Answer: 18.6 µM (inactive)

Question: And the GI50 [16]?
Answer: 7.36 µM (inactive)

Question: And the GI50 [17]?
Answer: 17 µM (inactive)

Question: And the GI50 [53]?
Answer: 8.07 µM (inactive)

Question: What about the GI50 [19] of the same compound?
Answer: 4.94 µM (inactive)

Question: What about the GI50 [20] of the same compound?
Answer: 11.8 µM (inactive)

Question: And the GI50 [22]?
Answer: 44 µM (inactive)

Question: And the GI50 [23]?
Answer: 17.1 µM (inactive)

Question: And the GI50 [24]?
Answer: 24 µM (inactive)

Question: What about the GI50 [25] of the same compound?
Answer: 30.4 µM (inactive)

Question: And the GI50 [26]?
Answer: 25.1 µM (inactive)

Question: And the GI50 [31]?
Answer: 5.5 µM (inactive)

Question: And the GI50 [33]?
Answer: 5.31 µM (inactive)

Question: And the GI50 [35]?
Answer: 18.2 µM (inactive)

Question: What about the GI50 [55] of the same compound?
Answer: 11.7 µM (inactive)

Question: And the GI50 [56]?
Answer: 12.5 µM (inactive)

Question: And the GI50 [42]?
Answer: 26.1 µM (inactive)

Question: And the GI50 [46]?
Answer: 36.1 µM (inactive)

Question: And the GI50 [47]?
Answer: 10.5 µM (inactive)

Question: What about the GI50 [50] of the same compound?
Answer: 59.4 µM (inactive)

Question: And the GI50 [57]?
Answer: 6.75 µM (inactive)
